{
  "source": "patent US5578643A",
  "about": "“Protective prostaglandins for use in conjunction with chemotherapeutic agents” (Loyola University of Chicago, priority 1994, dated 1996)",
  "key": {"[1]": {"tested_on": "mice given graded doses of doxorubicin (DOX)", "test": "DOX dose response: dose killing 50% of the mice within 15 days, alone or after PG or WR-2721", "type": "in vivo", "settings": "for effect on DOX dose necessary to kill 50% of mice: 10 μg of 16,16-dimethyl PGE2 or 25 μg of SC-44932, 2 hours before graded doses of doxorubicin, n=8, FIG. 6", "experimental": "The open triangle is data of a group of 10 mice given WR-2721, 30 minutes before administration of 0.75 mg of doxorubicin. (The lines are computer fit spline curves through the data; n=24 per data point on each curve).\n(The lines are computer fit spline curves through the data; n=8 per data point for each of the PG-treated groups and n=24 for the data points of mice treated only with doxorubicin).\nIt was observed that all acute deaths due to DOX treatment alone occurred before day 15 following DOX administration. Subsequently, the parameter of death within 15 days was used to investigate the DOX dose response administered IP alone or 2 hours after 40 μg of misoprostol was given subcutaneously (sc). In this study, a dose of about 0.5 mg of DOX/average 30 gram mouse, killed 50% of the DOX treated mice (see FIG. 5).\nA comparison of PG-induced protection was made to that of protection by WR-2721; an agent reported to protect from some chemotherapeutic agents. […] Two other PGs representing different structural prostaglandins than misoprostol were also investigated for their effectiveness in protecting mice from mortality resulting from administration of graded doses of DOX."}, "hair medullary cells": {"tested_on": "hair medullary cells", "test": "Number of hair medullary cells four days after a single dose of chemotherapeutic agent, with or without misoprostol", "type": "in vivo, CF1 mice", "settings": "4 days after single IP dose: DOX 0.3, CTX 1, VP-16-213 0.3, ARA-C 8, HU 10, 5 FU 1.0, Methotrexate 0.2, Bleomycin 0.05, Mitomycin C 0.01, Cisplatin 0.25, Carboplatin 1.0, Taxol 0.6 mg; untreated control 51.4 ± 0.6", "experimental": "FIG. 13 is a representation of photographs of shafts of hair showing a single line of medullary cells in control mice (Panel A) and in mice 4 days after they were given a single dose of 0.3 mg of VP-16-213 (Panel B).\nNumber of Hair Medullary Cells as a Measure of Protection from Injury caused by Chemotherapeutic Agents.\nThe shafts of hair in CF1 mice contain usually a single line of about 50±1 medullary cells. These cells are very sensitive to cytotoxic agents (see Potten, C. S., Geng, L., and Taylor, P., Hair Medullary Cell Counts: a Simple and Sensitive Indicator of Radiation Exposure. Int. J Radiat. Biol., 57:13-21, 1990). Single doses of cytotoxic chemotherapeutic agents greatly reduce the number of medullary cells which reach a nadir at 4 days after administration of the agent. This cell system has been used for the evaluation of misoprostol-induced protection from several chemotherapeutic agents.\nCF1 mice had hair from an area of their rump plucked to induce anagen growth as described in Example 2 above. […] In separate groups, mice received misoprostol (40 μg/average 30 g mouse) either subcutaneously or applied topically 2 hours before each of the chemotherapeutic agents listed above. Untreated controls were used since it has been previously determined that water, or 2% EtOH in water, or phosphate buffer at pH=6.8 (the vehicles for the all agents used) had no influence on the cell counts compared to untreated controls. Twenty-five hairs from each animal of each group were dissected from Feulgen stained samples taken from the mice 4 days after treatment.\nThe number of medullary cells was averaged (n=4) for each treatment group and the results for all chemotherapeutic agents tested to date are presented in Table I."}, "[2]": {"test": "Survival of mice (percent survival over 15 days) after doxorubicin, with or without prior prostaglandin", "settings": "mouse, in vivo, ip, 0.5 mg", "experimental": "(§1) FIG. 1 is a graph illustrating percent survival of mice over 15 days as a function of the time interval (in hours) between the administration of misoprostol and the subsequent administration of doxorubicin. (The two curves represent duplicate experiments; 12 animals per experiment.)\n(§2) FIG. 2 is a graph illustrating the percent survival of mice over 15 days following the administration of 0.5 mg of doxorubicin (open circles) and mice given 40 μg of misoprostol 2 hours before administration of 0.5 mg of doxorubicin (filled circles). (N=16 for each group).\n(§3) FIG. 3 is a graph illustrating the percent survival of mice over 15 days following the administration of 0.75 mg of doxorubicin (open circles) and mice given 40 μg of misoprostol 2 hours before administration of 0.75 mg of doxorubicin (filled circles). (N=16 for each group).\n(§4) Mortality of mice is a measure of PG-induced protection from death due to severe normal tissue injury inflicted by chemotherapy agents.\n(§5) This assay was accomplished by injecting intraperitoneally (IP) separate groups of mice with a range of doses of chemotherapeutic agents. […] In some groups of mice, longevity was recorded by plotting the number of animals remaining alive (percent survival) versus time following the administration of the chemotherapeutic agent.\n(§6) PG-induced protection from the toxic chemotherapeutic agents was measured by subcutaneous (SC) injection of the PG at various times prior to or after the IP administration of the chemotherapeutic agent. […] The time interval was varied from 15 minutes to 5 hours. The two curves represent two separate experiments with 20 mice in each experiment. The \"0\" time point is the percentage of mice that survived 15 days after administration of doxorubicin alone."}, "[3]": {"tested_on": "mice given doxorubicin (DOX)", "test": "Survival of mice (percent survival over 15 days) after doxorubicin, with or without prior prostaglandin", "settings": "0.75 mg of DOX IP alone; n=16; FIG. 3", "experimental": "as §1, §2, §3, §4, §5, §6"}, "[4]": {"tested_on": "white blood cells (WBCs) in the peripheral circulation", "test": "WBC counts and differential counts in peripheral blood of DOX treated mice", "type": "in vivo", "experimental": "FIG. 7 is a graph illustrating the protective effect of misoprostol (given 2 hours before doxorubicin) on WBC counts compared to the effect of doxorubicin alone on WBC counts as function of time (in days). (The numbers 1 and 2 are duplicate studies.)\nDeath within 15 days of DOX treatment alone is most likely associated with bone marrow injury. […] DOX, therefore, appears to not only reduce the total WBC, but has a particularly marked effect on lymphocytes."}, "hair follicles": {"tested_on": "hair follicles", "test": "Hair count / hair loss (alopecia) caused by chemotherapeutic agents, 5 daily treatments", "type": "in vivo, mice", "settings": "0.1 mg DOX daily for 5 days IP; controls 248±5; FIG. 9", "experimental": "Panel C is a representation of a photomicrograph of an animal given 40 μg of misoprostol, 2 hours before the 0.1 mg daily dose of doxorubicin given each day for 5 days.\n(Data are the means of 6 mice (2 fields/mouse)±1 SEM.)\nAmount of Hair Loss as a Measure of PG-induced Protection from Alopecia caused by Chemotherapeutic Agents.\nOne of the side effects of chemotherapy in cancer patients is hair loss or alopecia. Studies were conducted to measure a possible protective effect of PGs from alopecia caused by chemotherapeutic agents. […] The hairs on the rumps of mice (n=4/group) were plucked to induce a growth or anagen cycle within hair follicles which continues for about 18 days. […] Control groups (n=4) received no treatment or misoprostol alone."}, "skin (hair follicles)": {"tested_on": "skin (hair follicles)", "test": "Hair count after a single dose of doxorubicin, with or without PGE1", "type": "in vivo, mice", "settings": "FIG. 11", "experimental": "FIG. 11 is a graph illustrating the number of hairs per 4.16 sq. mm of skin area in control mice, in mice that received 0.5 mg of doxorubicin or in mice that received 10 μg of PGE1 2 hours before receiving 0.5 mg of doxorubicin. (Data are the means of 6 mice (2 field/mouse)±SEM.)\n(§7) The hair counts from skin fields of control (open bar), DOX (striped bar) and misoprostol+DOX (filled bar) treated mice are shown in FIG. 9. […] Misoprostol given before DOX increased the hair count to 213±7.8. […] Since prostaglandin receptors are not evenly distributed, protection may not be evenly distributed. PGE1 is associated with the skin (hair follicles) but not with the gut. The ability of PGE1 to protect the skin (hair follicles) and the small intestine from cell injury caused by doxorubicin was tested. […] A single dose of 0.5 mg of doxorubicin reduced this count to 43±8. Administration of 10 μg of PGE1 prior to administration of doxorubicin provided protection as indicated by the increase in the number of hairs to 111±12. […] More evidence is presented in Example 3."}, "small intestine": {"tested_on": "small intestine", "test": "Intestinal microcolonies in DOX treated mice, with or without PGE1", "type": "in vivo", "settings": "FIG. 12", "description": "(Data are the means of 4 mice±1 SEM.)\nas §7"}, "kidney": {"tested_on": "kidney", "settings": "bolus infusions of cisplatin; Glover et al.; cited from earlier work"}, "humans": {"tested_on": "humans", "settings": "WR-2721 in large protective doses; cited from earlier work"}},
  "data": [
    {"molecule": "C/C=C/C=C/[C@](C)(O)C/C=C/C1C(O)CC(=O)C1CC/C=C\\CCC(=O)OC", "note": "(mixture of isomers) [SC-44932, (±) methyl, 7-[3α-hydroxy-2β-(4R-hydroxy-4-methyl-1E, 5E,7E-nonatrienyl)-5-oxo-1α-cyclopentyl]-4-Z-heptenoate]", "values": [
      {"measurement": "effect on DOX dose necessary to kill 50% of mice", "setting": "[1]", "value": "increased the DOX dose necessary to kill 50% of a population (n=8) of mice"}
    ]},
    {"molecule": "CCCCC(C)(C)[C@H](O)/C=C/[C@H]1[C@H](O)CC(=O)[C@@H]1C/C=C\\CCCC(=O)O", "note": "[16,16-dimethyl PGE2, 16,16-dimethyl prostaglandin E2]", "values": [
      {"measurement": "effect on DOX dose necessary to kill 50% of mice", "setting": "[1]", "value": "increased the DOX dose necessary to kill 50% of a population (n=8) of mice"}
    ]},
    {"molecule": "O=P1(N(CCCl)CCCl)NCCCO1", "note": "(stereo not drawn) [CTX, cytoxan]", "values": [
      {"measurement": "Number of Medullar Cells ± 1 SEM, chemotherapeutic agent IP alone", "setting": "hair medullary cells", "value": "22.1 ± 1.9"}
    ]},
    {"molecule": "N.N.O=C([O-])C1(C(=O)[O-])CCC1.[Pt+2]", "note": "[Carboplatin, carboplatin]", "values": [
      {"measurement": "Number of Medullar Cells ± 1 SEM, chemotherapeutic agent IP alone", "setting": "hair medullary cells", "value": "37.8 ± 2.4"}
    ]},
    {"molecule": "N.N.[Cl][Pt][Cl]", "note": "[Cisplatin, cisplatin]", "values": [
      {"measurement": "Number of Medullar Cells ± 1 SEM, chemotherapeutic agent IP alone", "setting": "hair medullary cells", "value": "25.9 ± 1.5"}
    ]},
    {"molecule": "COc1cccc2c1C(=O)c1c(O)c3c(c(O)c1C2=O)C[C@@](O)(C(=O)CO)C[C@@H]3O[C@H]1C[C@H](N)[C@H](O)[C@H](C)O1", "note": "[DOX, doxorubicin]", "values": [
      {"measurement": "survival at 360 h", "setting": "[2]", "value": "~25", "unit": "%"},
      {"measurement": "mortality, DOX alone", "setting": "[3]", "value": "All of the mice were dead by six days"},
      {"measurement": "dose of DOX that killed 50% of the mice, DOX alone", "setting": "[1]; IP, death within 15 days, FIG. 5", "value": "about 0.5 mg of DOX/average 30 gram mouse"},
      {"measurement": "time of all acute deaths due to DOX treatment alone (before day)", "setting": "[1]; following DOX administration", "value": "< 15", "unit": "days"},
      {"measurement": "WBCs in the peripheral circulation, DOX alone", "setting": "[4]; 0.5 mg DOX/30 gram mouse, FIG. 7", "value": "sharply reduced over 7 days following treatment"},
      {"measurement": "percentage of lymphocytes, DOX alone", "setting": "[4]; 0.5 mg of DOX, differential counts, control mice about 85%", "value": "less than 10%"},
      {"measurement": "number of hairs, DOX alone", "setting": "hair follicles", "value": "144±3", "unit": "hairs per 4.42 sq. mm"},
      {"measurement": "number of hairs, doxorubicin alone", "setting": "skin (hair follicles); single dose of 0.5 mg doxorubicin, control 237±5", "value": "43±8", "unit": "hairs per 4.16 sq. mm"},
      {"measurement": "number of intestinal colonies per circumference, DOX alone", "setting": "small intestine; 0.5 mg of doxorubicin", "value": "6±0.3 intestinal colonies per circumference"},
      {"measurement": "Number of Medullar Cells ± 1 SEM, chemotherapeutic agent IP alone", "setting": "hair medullary cells", "value": "18.3 ± 1.7"}
    ]},
    {"molecule": "CCCCC[C@H](O)/C=C/[C@H]1[C@H](O)CC(=O)[C@@H]1CCCCCCC(=O)O", "note": "[PGE1]", "values": [
      {"measurement": "number of hairs, PGE1 + doxorubicin", "setting": "skin (hair follicles); 10 μg of PGE1 2 hours before 0.5 mg doxorubicin", "value": "111±12", "unit": "hairs per 4.16 sq. mm"},
      {"measurement": "number of intestinal colonies per circumference, PGE1 + DOX", "setting": "small intestine; 10 μg of PGE1 (b62 prints .rho.g) 2 hours before 0.5 mg doxorubicin", "value": "did not change"}
    ]},
    {"molecule": "NCCCNCCSP(=O)(O)O", "note": "[WR-2721, S-2-(3-aminopropylamino) ethylphosphorothioxic acid]", "values": [
      {"measurement": "protection of mice from DOX by WR-2721", "setting": "[1]; WR-2721 30 minutes before 0.75 mg of doxorubicin, n=10, FIG. 5", "value": "did not protect mice (n=10) from DOX treatment"},
      {"measurement": "kidney protection from cisplatin injury", "setting": "kidney", "value": "protect the kidney from injury caused by bolus infusions of cisplatin"},
      {"measurement": "side effects in humans", "setting": "humans", "value": "causes hypotension, nausea, and vomiting in humans"}
    ]},
    {"molecule": "bleomycin", "values": [
      {"measurement": "Number of Medullar Cells ± 1 SEM, chemotherapeutic agent IP alone", "setting": "hair medullary cells", "value": "30.4 ± 1.4"}
    ]}
  ]
}
